Measured values published in patent US20240366567A1, “PHARMACEUTICAL COMBINATIONS COMPRISING A KRAS G12C INHIBITOR AND USES THEREOF FOR THE TREATMENT OF CANCERS” (NOVARTIS AG, priority 2021, published 2024).
Read-outs that look alike come from different tables or passages of the source.

Legend:
[1] = target: T1, KRAS G12C_H95Q (GDP) (Homo sapiens, UniProt P01116, G12C/H95Q); assay: Covalent rate constants by RapidFire MS; type: binding; conditions: n=2
T1 construct: the cDNA encoding KRAS, NRAS, and HRAS comprised aa 1-169; made in house; host or cells: E. coli BL21(DE3)
Protocol: (§1) The E. coli expression constructs used in this study were based on the pET system and generated using standard molecular cloning techniques. […] Point mutations were introduced with the QuikChange Lightning Site-Directed Mutagenesis kit (Agilent). All final expression constructs were sequence verified by Sanger sequencing.
(§2) Cell pellets were resuspended in buffer A (20 mM Tris, 500 mM NaCl, 5 mM imidazole, 2 mM TCEP, 10% glycerol, pH 8.0) supplemented with Turbonuclease (Merck) and cOmplete protease inhibitor tablets (Roche). The cells were lysed by three passages through a homogenizer (Avestin) at 800-1000 bar and the lysate clarified by centrifugation at 40000 g for 40 min. The lysate was loaded onto a HisTrap HP 5 ml column (Cytiva) mounted on an AKTA Pure 25 chromatography system (Cytiva). Contaminating proteins were washed away with buffer A and bound protein was eluted with a linear gradient to buffer B (buffer A supplemented with 200 mM imidazole). During dialysis O/N the N-terminal His affinity purification tags on the non-tagged and avi-tagged proteins were cleaved off by TEV or HRV3C protease, respectively. The protein solution was re-loaded onto a HisTrap column and the flow through containing the target protein collected.
(§3) Guanosine 5′-diphosphate sodium salt (GDP, Sigma) or GppNHp-Tetralithium salt (Jena Bioscience) was added to a 24-32× molar excess over protein. […] After 1 hour at room temperature the buffer was exchanged on a PD-10 desalting column (Cytiva) against 40 mM Tris, 200 mM (NH4)2SO4, 0.1 mM ZnCl2, pH 8.0. […] 40 U Shrimp Alkaline Phosphatase (New England Biolabs) was added to GppNHp containing samples only. The sample was then incubated for 1 hour at 5° C. Finally, MgCl2 was added to a concentration of about 30 mM. […] The purity and concentration of the protein was determined by RP-HPLC, its identity was confirmed by LC-MS.
(§4) Reactions were stopped at different time points by addition of formic acid to 1%. […] In parallel, compound solubility was assessed by nephelometry and compound concentrations resulting in measurable turbidity were excluded from curve fitting. […]

[2] = target: T2, KRAS G12C_Y96C (GDP) (Homo sapiens, UniProt P01116, G12C/Y96C); assay: Covalent rate constants by RapidFire MS; type: binding; conditions: n=2
T2 construct: the cDNA encoding KRAS, NRAS, and HRAS comprised aa 1-169; made in house; host or cells: E. coli BL21(DE3)
Protocol: as §1, §2, §3, §4

[3] = target: T3, KRAS G12C_Y96D (GDP) (Homo sapiens, UniProt P01116, G12C/Y96D); assay: Covalent rate constants by RapidFire MS; type: binding; conditions: n=3
T3 construct: the cDNA encoding KRAS, NRAS, and HRAS comprised aa 1-169; made in house; host or cells: E. coli BL21(DE3)
Protocol: as §1, §2, §3, §4

[4] = tested on: human KRAS G12C-mutated CRC PDX models; assay: CRC patient-derived xenograft (PDX) panel; type: in vivo, nude mice; conditions: Compound A alone, 100 mg/kg QD oral
Protocol: (§5) The antitumor efficacy of JDQ443±inhibitors of RAS-upstream or RAS-downstream signaling was evaluated in PDX panels of human KRAS G12C-mutated NSCLC and CRC.
(§6) Patient-derived xenograft (PDX) models of human NSCLC and CRC were established by direct implantation of patient NSCLC or CRC tumor tissue subcutaneously into nude mice. PDX models were maintained through in vivo serial passaging.
(§7) A cohort of mice was implanted subcutaneously with tumor fragments from each PDX model (typically passages 4-9). Ten NSCLC and nine CRC PDX models were used. Each model is named with a code, e.g. 30580-HX, 30581-HX etc, for identification and tracking purposes. Individual mice were assigned to treatment groups or control groups for dosing once their tumor volume reached 200-250 mm^3 (T=0, on the x-axis of the spider plots). One animal per PDX model was assigned to each treatment arm. Once enrolled into treatment arms, tumor volumes were measured twice weekly by caliper, and tumor volume was estimated in […] using the formula: Length×Width^2/2. The end of study per model was defined as minimum of 28 days treatment, or duration for untreated tumor to reach 1500 mm^3, or duration for 2 doublings of untreated tumor, whichever was slower.
(§8) The Raf inhibitor (LXH254 (naporafenib)) was formulated as a suspension. […]

[5] = tested on: human KRAS G12C-mutated NSCLC PDX models; assay: NSCLC patient-derived xenograft (PDX) panel; type: in vivo, nude mice; conditions: Compound A alone, 100 mg/kg QD oral
Protocol: as §5, §6, §7, §8

[6] = tested on: KRAS G12C and CDKN2A-mutated LU99 xenograft; assay: LU99 xenograft, Compound A with ribociclib (Example 7); type: in vivo; conditions: LU99 xenograft in mice
[7] = KontRASt-01 (NCT04699188) clinical pharmacokinetics; type: in vivo, human
Protocol: FIG. 15: PK and target occupancy profiles of JDQ443 RD 200 mg BID. […] Error bars indicate standard deviation for PK profile at each timepoint. […]

[8] = Case 1, JDQ443 200 mg BID continuously, steady-state (cycle 1 day 14)

T1 sequence (P01116 1-169 isoform P01116-2 G12C/H95Q): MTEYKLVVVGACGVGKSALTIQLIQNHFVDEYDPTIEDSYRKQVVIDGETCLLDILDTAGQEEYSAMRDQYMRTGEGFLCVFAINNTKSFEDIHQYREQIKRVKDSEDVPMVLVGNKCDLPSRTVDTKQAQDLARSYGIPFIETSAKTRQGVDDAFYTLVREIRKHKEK
T3 sequence (P01116 1-169 isoform P01116-2 G12C/Y96D): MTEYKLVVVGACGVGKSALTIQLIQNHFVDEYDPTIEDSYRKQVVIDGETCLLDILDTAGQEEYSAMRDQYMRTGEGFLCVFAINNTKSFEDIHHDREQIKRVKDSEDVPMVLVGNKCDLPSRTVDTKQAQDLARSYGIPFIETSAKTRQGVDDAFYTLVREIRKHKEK
T2 sequence (P01116 1-169 isoform P01116-2 G12C/Y96C): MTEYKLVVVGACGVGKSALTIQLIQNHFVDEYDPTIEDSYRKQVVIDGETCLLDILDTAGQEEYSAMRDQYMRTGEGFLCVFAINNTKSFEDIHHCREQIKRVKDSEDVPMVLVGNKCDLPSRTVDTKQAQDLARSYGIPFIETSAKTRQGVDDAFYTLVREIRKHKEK

In the case of `C=CC(=O)N1CC2(CC(n3nc(-c4ccc5c(cnn5C)c4)c(-c4c(Cl)c(C)cc5[nH]ncc45)c3C)C2)C1` (single isomer, unassigned) [Compound A, 1-{6-[(4M)-4-(5-Chloro-6-methyl-1H-indazol-4-yl)-5-methyl-3-(1-methyl-1H-indazol-5-yl)-1H-pyrazol-1-yl]-2-azaspiro[3.3]heptan-2-yl}prop-2-en-1-one], the “Second order rate constant (Kinact/KI)” value [1] was 9500 M⁻¹ s⁻¹, the “Second order rate constant (Kinact/KI)” value [2] was 650 M⁻¹ s⁻¹ and the “Second order rate constant (Kinact/KI)” value [3] was 90 M⁻¹ s⁻¹. For the same compound, the anti-tumor response [4] was “moderate anti-tumor response in a few models”, the anti-tumor response [5] was “no to moderate anti-tumor response in half of the models and a good anti-tumor response in the other half of the models” and the “effect on tumor growth” value [6] was “tumor regression for approximately two and a half weeks, followed by tumor relapse”. For the same compound, the “accumulation at steady state” value ([7]; 200 mg BID, patients) was “No significant accumulation”, the auto-induction ([7]; 200 mg BID, patients) was “no evidence of auto-induction” and the “steady-state area under the curve (AUCss) versus exposure required for maximum efficacy in less-sensitive KRAS G12C xenograft models” value ([7]; 200 mg BID, patients) was “more than threefold”. The AUC0-24 h [7, 8] was 75930 ng·h/mL, the Cmax [7, 8] was 5920 ng/mL and the Tmax [7, 8] was 7.8 h. For the same compound, the Tmax ([7]; human, plasma, oral, 200 mg, 200 mg BID, following administration with food, read-out: median time to maximum plasma concentration (Tmax)) was 3 to 4 h, the Tmax ([7]; human, plasma, oral, 200 mg, 200 mg BID, steady state, patients, read-out: Tmax, median (min-max)) was 3.2 h and the half-life ([7]; human, plasma, oral, 200 mg BID, patients) was about 7 h. The AUC(0-t) ([7]; human, plasma, oral, 200 mg BID, steady state, patients, read-out: AUC0-12, ss, GeoMean (CV %)) was 49400 ng·h/mL and the Cmax ([7]; human, plasma, oral, 200 mg BID, steady state, patients, read-out: Cmax, ss, GeoMean (CV %)) was 5950 ng/mL.
